Among the data in patent publication US20120245137A1 (Zalicus Pharmaceuticals Ltd., priority 2009, published 2012) are IC50 values, retold here.

Structures are written as SMILES. Where only a bound is given, the exact number is not on record here.

What all share (format): cell-based
Experiment [1] has as its target N-type calcium channel subunits (α1B, α2δ, and β3a) (Homo sapiens, UniProt Q00975). The experiment is described as follows: Block of Cav2.2 channel, whole cell voltage clamp, manual and PatchXpress. The note with it: Table 5; table follows Assay Example 3 (whole cell voltage clamp / PatchXpress); assay not given. The essentials:
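Percent block taken as current amplitude ratio with versus without compound, applied in rising doses; IC50 fitted where one cell received multiple doses. Protocol: 50 ms pulses to +20 mV at 0.067 Hz from […] or −90 mV holding; P/n leak subtraction, no junction-potential correction; manual and PatchXpress recordings.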

The target in experiment [2] is human α1H T-type channels (Homo sapiens, UniProt O95180). The experiment is described as follows: T-type calcium channel block, whole cell patch clamp, α1H. Particulars: HEK cells stably expressing human α1H; mainly non-inactivated protocol; values above 10,000 nM represented as 10000. Put shortly: (§1)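 Whole-cell T-type currents, stably transfected HEK 293 (human α1G/α1H), passage 4-20. Cmpd in external soln, 0.1-0.01% DMSO, local gravity perfusion after ~10 min rest. Two voltage protocols: non-inactivating (resting block), inactivation (voltage-dependent block).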

Experiment [3] has as its target human α1G T-type channels (Homo sapiens, UniProt O43497). The experiment is described as follows: T-type calcium channel block, whole cell patch clamp, α1G. The note with it: HEK cells stably expressing human α1G; mainly non-inactivated protocol; values above 10,000 nM represented as 10000. The essentials:
as §1

N-type calcium channel subunits (α1B, α2δ, and β3a), sequence (Q00975 whole entry): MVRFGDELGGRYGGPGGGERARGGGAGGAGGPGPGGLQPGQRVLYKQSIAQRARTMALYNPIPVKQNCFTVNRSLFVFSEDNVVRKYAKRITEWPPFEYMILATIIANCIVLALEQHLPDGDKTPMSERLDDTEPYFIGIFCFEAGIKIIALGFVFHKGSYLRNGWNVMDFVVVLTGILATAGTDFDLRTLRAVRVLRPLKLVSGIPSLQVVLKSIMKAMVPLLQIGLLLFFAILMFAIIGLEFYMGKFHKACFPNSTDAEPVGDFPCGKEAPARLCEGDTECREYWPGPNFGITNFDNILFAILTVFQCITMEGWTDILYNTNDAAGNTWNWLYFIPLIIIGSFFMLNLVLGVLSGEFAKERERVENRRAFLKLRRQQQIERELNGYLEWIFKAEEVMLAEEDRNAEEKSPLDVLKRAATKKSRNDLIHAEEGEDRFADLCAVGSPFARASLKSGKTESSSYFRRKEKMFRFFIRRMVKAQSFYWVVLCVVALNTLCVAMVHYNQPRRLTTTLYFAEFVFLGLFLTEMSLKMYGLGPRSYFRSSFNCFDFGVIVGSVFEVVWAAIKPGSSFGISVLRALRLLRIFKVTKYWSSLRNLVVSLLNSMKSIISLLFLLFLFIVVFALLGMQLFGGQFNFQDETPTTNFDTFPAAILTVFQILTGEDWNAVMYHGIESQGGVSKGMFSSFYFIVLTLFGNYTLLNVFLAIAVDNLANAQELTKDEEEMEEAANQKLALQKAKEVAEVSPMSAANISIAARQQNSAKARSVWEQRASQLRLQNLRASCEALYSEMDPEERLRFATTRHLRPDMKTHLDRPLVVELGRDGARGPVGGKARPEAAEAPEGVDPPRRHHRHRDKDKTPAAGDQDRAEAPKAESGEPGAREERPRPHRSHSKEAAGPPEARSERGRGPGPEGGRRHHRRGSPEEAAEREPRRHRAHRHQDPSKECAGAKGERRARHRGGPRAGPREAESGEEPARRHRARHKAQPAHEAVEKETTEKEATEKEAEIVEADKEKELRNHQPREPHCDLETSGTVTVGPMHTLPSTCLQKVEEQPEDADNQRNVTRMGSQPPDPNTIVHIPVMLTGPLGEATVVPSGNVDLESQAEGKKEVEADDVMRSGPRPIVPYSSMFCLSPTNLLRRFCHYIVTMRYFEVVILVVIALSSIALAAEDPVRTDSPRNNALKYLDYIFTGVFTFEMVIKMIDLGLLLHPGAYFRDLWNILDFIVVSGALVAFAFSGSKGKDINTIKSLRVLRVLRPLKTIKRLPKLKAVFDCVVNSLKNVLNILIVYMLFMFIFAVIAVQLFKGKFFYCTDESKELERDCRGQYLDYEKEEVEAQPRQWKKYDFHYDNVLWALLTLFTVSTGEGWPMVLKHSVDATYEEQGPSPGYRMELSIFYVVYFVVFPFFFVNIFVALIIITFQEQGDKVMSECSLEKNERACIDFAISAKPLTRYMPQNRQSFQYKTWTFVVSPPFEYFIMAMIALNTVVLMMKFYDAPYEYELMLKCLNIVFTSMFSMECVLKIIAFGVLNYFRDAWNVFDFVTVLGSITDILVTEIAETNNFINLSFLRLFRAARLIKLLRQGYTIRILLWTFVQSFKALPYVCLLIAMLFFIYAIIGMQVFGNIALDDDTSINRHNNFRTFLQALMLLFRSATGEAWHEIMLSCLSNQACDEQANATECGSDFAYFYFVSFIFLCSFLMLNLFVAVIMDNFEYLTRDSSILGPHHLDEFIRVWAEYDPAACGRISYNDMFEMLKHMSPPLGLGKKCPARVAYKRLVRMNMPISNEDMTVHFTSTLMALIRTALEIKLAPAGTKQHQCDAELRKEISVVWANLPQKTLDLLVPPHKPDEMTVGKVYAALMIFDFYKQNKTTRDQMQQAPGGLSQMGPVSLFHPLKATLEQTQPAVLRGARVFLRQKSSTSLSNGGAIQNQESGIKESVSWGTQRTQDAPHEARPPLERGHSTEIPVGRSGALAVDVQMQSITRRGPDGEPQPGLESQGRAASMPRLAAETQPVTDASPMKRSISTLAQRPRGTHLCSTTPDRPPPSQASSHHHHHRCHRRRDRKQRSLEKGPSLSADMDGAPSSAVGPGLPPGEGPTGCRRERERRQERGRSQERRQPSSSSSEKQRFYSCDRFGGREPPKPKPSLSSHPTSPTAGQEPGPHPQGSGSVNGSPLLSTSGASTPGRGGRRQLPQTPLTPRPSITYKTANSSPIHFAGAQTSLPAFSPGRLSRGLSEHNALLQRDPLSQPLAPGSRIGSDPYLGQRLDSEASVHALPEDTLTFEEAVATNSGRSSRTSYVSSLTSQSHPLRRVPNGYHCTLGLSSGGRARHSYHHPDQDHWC
N-type calcium channel subunits (α1B, α2δ, and β3a), sequence (P54289 25-1103 partner): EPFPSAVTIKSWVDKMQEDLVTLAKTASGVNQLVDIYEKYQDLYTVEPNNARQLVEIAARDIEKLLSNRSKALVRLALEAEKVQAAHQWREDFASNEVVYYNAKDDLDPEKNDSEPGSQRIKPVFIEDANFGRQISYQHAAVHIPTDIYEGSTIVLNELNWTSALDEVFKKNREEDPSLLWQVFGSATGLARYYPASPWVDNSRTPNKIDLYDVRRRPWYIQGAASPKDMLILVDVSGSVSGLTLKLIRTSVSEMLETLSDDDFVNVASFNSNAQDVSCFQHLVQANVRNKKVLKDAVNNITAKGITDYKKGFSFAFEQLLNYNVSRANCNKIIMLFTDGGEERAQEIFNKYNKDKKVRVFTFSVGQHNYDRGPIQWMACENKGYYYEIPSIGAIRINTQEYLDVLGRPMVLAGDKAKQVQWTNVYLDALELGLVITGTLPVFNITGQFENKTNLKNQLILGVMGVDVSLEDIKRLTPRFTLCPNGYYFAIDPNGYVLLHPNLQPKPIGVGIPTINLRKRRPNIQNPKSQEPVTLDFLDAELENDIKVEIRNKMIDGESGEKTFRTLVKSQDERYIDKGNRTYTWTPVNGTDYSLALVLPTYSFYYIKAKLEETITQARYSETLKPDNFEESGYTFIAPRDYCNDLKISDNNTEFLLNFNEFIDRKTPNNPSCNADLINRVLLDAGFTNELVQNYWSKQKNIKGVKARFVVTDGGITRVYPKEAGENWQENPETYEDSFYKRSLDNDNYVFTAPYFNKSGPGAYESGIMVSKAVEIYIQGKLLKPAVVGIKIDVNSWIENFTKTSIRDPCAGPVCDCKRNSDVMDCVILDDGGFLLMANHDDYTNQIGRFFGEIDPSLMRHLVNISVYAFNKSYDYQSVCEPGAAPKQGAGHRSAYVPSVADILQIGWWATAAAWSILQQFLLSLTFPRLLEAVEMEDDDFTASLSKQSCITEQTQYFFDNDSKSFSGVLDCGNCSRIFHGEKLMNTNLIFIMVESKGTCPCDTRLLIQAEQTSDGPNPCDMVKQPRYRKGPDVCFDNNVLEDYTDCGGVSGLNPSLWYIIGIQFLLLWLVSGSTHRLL
N-type calcium channel subunits (α1B, α2δ, and β3a), sequence (P54284 whole entry partner): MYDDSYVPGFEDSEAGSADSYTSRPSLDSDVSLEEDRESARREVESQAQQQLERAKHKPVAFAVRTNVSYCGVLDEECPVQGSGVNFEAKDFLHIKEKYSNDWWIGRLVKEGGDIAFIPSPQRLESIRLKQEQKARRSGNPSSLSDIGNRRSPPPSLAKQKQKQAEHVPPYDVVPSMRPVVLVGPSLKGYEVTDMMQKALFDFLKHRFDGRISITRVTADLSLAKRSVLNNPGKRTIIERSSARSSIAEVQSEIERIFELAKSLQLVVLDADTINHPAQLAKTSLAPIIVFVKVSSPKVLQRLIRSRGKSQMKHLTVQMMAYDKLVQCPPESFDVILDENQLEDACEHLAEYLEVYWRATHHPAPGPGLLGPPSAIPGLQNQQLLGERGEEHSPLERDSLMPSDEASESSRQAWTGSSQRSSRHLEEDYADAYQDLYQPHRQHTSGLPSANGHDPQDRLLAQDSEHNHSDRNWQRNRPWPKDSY

With `O=C(NC[C@H]1C[C@H](S(=O)(=O)c2cc(F)cc(C(F)(F)F)c2)C1)c1ccc(F)c(C(F)(F)F)c1` [Compound 389, 4-fluoro-N-(((1R,3R)-3-(3-fluoro-5-(trifluoromethyl)phenylsulfonyl)cyclobutyl)methyl)-3-(trifluoromethyl) benzamide], the IC50 in experiment [1] is 270 nM; in experiment [2] it was 8980 nM; in experiment [3] it was 6080 nM.
For `O=C(Nc1ccc(Oc2ccc(F)c(Cl)c2)nc1)[C@H]1C[C@H](S(=O)(=O)c2cccc(C(F)(F)F)c2)C1` [Compound 399, (1R,3R)-N-(6-(3-chloro-4-fluorophenoxy)pyridin-3-yl)-3-(3-(trifluoromethyl)phenylsulfonyl)cyclobutane carboxamide] the same measures were 1140 nM, 1060 nM and 1250 nM.
The matching figures for `O=C(Nc1ccc(Oc2ccc(C(F)(F)F)cn2)nc1)[C@H]1C[C@H](S(=O)(=O)c2cccc(C(F)(F)F)c2)C1` [Compound 400, (1R,3R)-3-(3-(trifluoromethyl)phenylsulfonyl)-N-(6-(5-(trifluoromethyl)pyridin-2-yloxy)pyridin-3-yl) cyclobutanecarboxamide]: 3830 nM, 5920 nM and more than 10000 nM.
For `O=C(Nc1ccc(Oc2ccc(C(F)(F)F)nc2)nc1)[C@H]1C[C@H](S(=O)(=O)c2cccc(C(F)(F)F)c2)C1` [Compound 401, (1R,3R)-3-(3-(trifluoromethyl)phenylsulfonyl)-N-(6-(6-(trifluoromethyl)pyridin-3-yloxy)pyridin-3-yl) cyclobutanecarboxamide] the same measures were 1430 nM, 9260 nM and more than 10000 nM.
Take `CC(C)(NC(=O)[C@H]1C[C@H](S(=O)(=O)c2cccc(C(F)(F)F)c2)C1)c1ccc(F)cc1` [Compound 402, (1R,3R)-N-(2-(4-fluorophenyl)propan-2-yl)-3-(3-(trifluoromethyl)phenylsulfonyl)cyclobutane carboxamide]: the results for the half-inhibitory concentration (IC50) in experiment [1], in experiment [2] and in experiment [3] were 1700 nM, 570 nM and 640 nM, respectively.
For `COc1ccc(C(C)(C)NC(=O)[C@H]2C[C@H](S(=O)(=O)c3cccc(C(F)(F)F)c3)C2)cc1` [Compound 403, (1R,3R)-N-(2-(4-methoxyphenyl)propan-2-yl)-3-(3-(trifluoromethyl)phenylsulfonyl)cyclobutane carboxamide] the same measures were 1460 nM, 1040 nM and 1190 nM.
For `Cn1nc(C(F)(F)F)cc1NC(=O)[C@H]1C[C@H](S(=O)(=O)c2cccc(C(F)(F)F)c2)C1` [Compound 407, (1R,3R)-N-(1-methyl-3-(trifluoromethyl)-1H-pyrazol-5-yl)-3-(3-(trifluoromethyl)phenylsulfonyl) cyclobutanecarboxamide], the IC50 in experiment [1] was 5630 nM; in experiment [2], 1660 nM; in experiment [3], more than 10000 nM.
For `Cn1nc(C(F)(F)F)cc1NC(=O)[C@H]1C[C@@H](S(=O)(=O)c2cccc(C(F)(F)F)c2)C1` [Compound 408, (1S,3S)-N-(1-methyl-3-(trifluoromethyl)-1H-pyrazol-5-yl)-3-(3-(trifluoromethyl)phenylsulfonyl)cyclobutane carboxamide] the same measures were 2490 nM, 420 nM and 8000 nM.
The matching figures for `O=C(Nc1cc(C(F)(F)F)ccn1)[C@H]1C[C@H](S(=O)(=O)c2cccc(C(F)(F)F)c2)C1` [Compound 409, (1R,3R)-3-(3-(trifluoromethyl)phenylsulfonyl)-N-(4-(trifluoromethyl)pyridin-2-yl)cyclobutanecarboxamide]: 1690 nM, 3620 nM and 2650 nM.
`O=C(Nc1cc(C(F)(F)F)ccn1)[C@H]1C[C@@H](S(=O)(=O)c2cccc(C(F)(F)F)c2)C1` [Compound 410, (1S,3S)-3-(3-(trifluoromethyl)phenylsulfonyl)-N-(4-(trifluoromethyl)pyridin-2-yl)cyclobutanecarboxamide]: the IC50 stood at 1240 nM in experiment [1], 1790 nM in experiment [2] and 3490 nM in experiment [3].
The matching figures for `O=C(Nc1cccc(C(F)(F)F)n1)[C@H]1C[C@H](S(=O)(=O)c2cccc(C(F)(F)F)c2)C1` [Compound 411, (1R,3R)-3-(3-(trifluoromethyl)phenylsulfonyl)-N-(6-(trifluoromethyl)pyridin-2-yl)cyclobutanecarboxamide]: 1020 nM, 2430 nM and more than 10000 nM.
Regarding `O=C(Nc1cccc(C(F)(F)F)n1)[C@H]1C[C@@H](S(=O)(=O)c2cccc(C(F)(F)F)c2)C1` [Compound 412, (1S,3S)-3-(3-(trifluoromethyl)phenylsulfonyl)-N-(6-(trifluoromethyl)pyridin-2-yl)cyclobutanecarboxamide], the IC50 in experiment [1] was 590 nM; in experiment [2], 1550 nM; in experiment [3], 6810 nM.
Regarding `O=C(Nc1ccc(C(F)(F)F)cn1)[C@H]1C[C@H](S(=O)(=O)c2cccc(C(F)(F)F)c2)C1` [Compound 415, (1R,3R)-3-(3-(trifluoromethyl)phenylsulfonyl)-N-(5-(trifluoromethyl)pyridin-2-yl)cyclobutanecarboxamide], the figures for the IC50 in experiment [1], in experiment [2] and in experiment [3] were 1760 nM, more than 10000 nM and more than 10000 nM, respectively.
In the case of `O=C(Nc1ccc(C(F)(F)F)cn1)[C@H]1C[C@@H](S(=O)(=O)c2cccc(C(F)(F)F)c2)C1` [Compound 416, (1S,3S)-3-(3-(trifluoromethyl)phenylsulfonyl)-N-(5-(trifluoromethyl)pyridin-2-yl)cyclobutanecarboxamide], the figures for the concentration for half-maximal inhibition (IC50) in experiment [1], in experiment [2] and in experiment [3] were 1650 nM, 8180 nM and more than 10000 nM, respectively.
For `Cc1nc(C(F)(F)F)ccc1NC(=O)[C@H]1C[C@H](S(=O)(=O)c2cccc(C(F)(F)F)c2)C1` [Compound 417, (1R,3R)-N-(2-methyl-6-(trifluoromethyl)pyridin-3-yl)-3-(3-(trifluoromethyl)phenylsulfonyl)cyclobutane carboxamide] the same measures were 5440 nM, 4690 nM and more than 10000 nM.
The matching figures for `Cc1nc(C(F)(F)F)ccc1NC(=O)[C@H]1C[C@@H](S(=O)(=O)c2cccc(C(F)(F)F)c2)C1` [Compound 418, (1S,3S)-N-(2-methyl-6-(trifluoromethyl)pyridin-3-yl)-3-(3-(trifluoromethyl)phenylsulfonyl)cyclobutane carboxamide]: 3500 nM, 2870 nM and more than 10000 nM.
Turning to `O=C(Nc1cncc(Cl)c1)[C@H]1C[C@H](S(=O)(=O)c2cccc(C(F)(F)F)c2)C1` [Compound 419, (1R,3R)-N-(5-chloropyridin-3-yl)-3-(3-(trifluoromethyl)phenylsulfonyl)cyclobutane carboxamide], the 50% inhibitory concentration (IC50) in experiment [1] was 3430 nM; in experiment [2], more than 10000 nM; in experiment [3] it was more than 10000 nM.
For the molecule `O=C(Nc1cncc(Cl)c1)[C@H]1C[C@@H](S(=O)(=O)c2cccc(C(F)(F)F)c2)C1` [Compound 420, (1S,3S)-N-(5-chloropyridin-3-yl)-3-(3-(trifluoromethyl)phenylsuIfonyl)cyclobutane carboxamide], the IC50 in experiment [1] stood at 1250 nM; in experiment [2], 710 nM; in experiment [3] it was 2020 nM.
The matching figures for `Cc1noc(C)c1S(=O)(=O)NC[C@H]1C[C@H](S(=O)(=O)c2cccc(C(F)(F)F)c2)C1` [Compound 422, 3,5-dimethyl-N-(((1R,3R)-3-(3-(trifluoromethyl)phenylsulfonyl)cyclobutyl)methyl)isoxazole-4-sulfonamide]: 2670 nM, 1390 nM and 2250 nM.
The matching figures for `O=S(=O)(NC[C@H]1C[C@H](S(=O)(=O)c2cccc(C(F)(F)F)c2)C1)c1ccc(C(F)(F)F)cc1Cl` [Compound 423, 2-chloro-4-(trifluoromethyl)-N-(((1R,3R)-3-(3-(trifluoromethyl)phenylsulfonyl)cyclobutyl)methyl)benzenesulfonamide]: 1280 nM, more than 10000 nM and more than 10000 nM.
In the case of `O=S(=O)(NC[C@H]1C[C@H](S(=O)(=O)c2cccc(C(F)(F)F)c2)C1)c1ccc(C(F)(F)F)cc1` [Compound 424, 4-(trifluoromethyl)-N-(((1R,3R)-3-(3-(trifluoromethyl)phenylsulfonyl)cyclobutyl)methyl)benzenesulfonamide], the half-inhibitory concentration (IC50) was determined as 1460 nM in experiment [1], 1040 nM in experiment [2] and 2290 nM in experiment [3].
On to `O=S(=O)(CCC(F)(F)F)NC[C@H]1C[C@H](S(=O)(=O)c2cccc(C(F)(F)F)c2)C1` [Compound 425, 3,3,3-trifluoro-N-(((1R,3R)-3-(3-(trifluoromethyl)phenylsulfonyl)cyclobutyl)methyl)propane-1-sulfonamide], for which the IC50 in experiment [1] came to 3760 nM; in experiment [2] it was 1070 nM; in experiment [3] it was 1550 nM.
The matching figures for `O=S(=O)(NC[C@H]1C[C@H](S(=O)(=O)c2cccc(C(F)(F)F)c2)C1)c1cccc(C(F)(F)F)c1` [Compound 427, 3-(trifluoromethyl)-N-(((1R,3R)-3-(3-(trifluoromethyl)phenylsulfonyl)cyclobutyl)methyl)benzenesulfonamide]: 920 nM, 880 nM and 3820 nM.
